Data published in the NIST ThermoML archive (doi:10.1021/acs.jced.7b00773).

Conditions: Liquid; for viscosity: Concentric cylinders viscometry

CCCC[N+]1(C)CCCC1.O=S(=O)([N-]S(=O)(=O)C(F)(F)F)C(F)(F)F
100 kPa
Conditions	viscosity [mPa·s]
293.15 K	98.53
303.15 K	61.87
313.15 K	41.45
323.15 K	29.25
333.15 K	21.53
343.15 K	16.4
353.15 K	12.86
363.15 K	10.33
373.15 K	8.471

Conditions	mass density [kg/m3]
293.15 K, 100 kPa, Vibrating tube method	1398.7
303.15 K, 100 kPa, Vibrating tube method	1389.8
311.6 K, 10000 kPa, Bellows volumetry	1389.1
311.6 K, 20000 kPa, Bellows volumetry	1396.1
311.6 K, 30000 kPa, Bellows volumetry	1402.6
311.6 K, 40000 kPa, Bellows volumetry	1408.7
311.6 K, 50000 kPa, Bellows volumetry	1414.5
311.6 K, 60000 kPa, Bellows volumetry	1420.1
311.6 K, 70000 kPa, Bellows volumetry	1425.5
311.6 K, 80000 kPa, Bellows volumetry	1430.7
311.6 K, 90000 kPa, Bellows volumetry	1435.5
311.6 K, 100000 kPa, Bellows volumetry	1440.4
311.6 K, 110000 kPa, Bellows volumetry	1445.5
311.6 K, 120000 kPa, Bellows volumetry	1449.8
311.6 K, 130000 kPa, Bellows volumetry	1454.3
311.6 K, 140000 kPa, Bellows volumetry	1458.6
311.6 K, 150000 kPa, Bellows volumetry	1462.9
311.6 K, 160000 kPa, Bellows volumetry	1467.2
311.6 K, 170000 kPa, Bellows volumetry	1471.2
311.6 K, 180000 kPa, Bellows volumetry	1475.1
311.6 K, 190000 kPa, Bellows volumetry	1479
311.6 K, 200000 kPa, Bellows volumetry	1483
313.15 K, 100 kPa, Vibrating tube method	1381
323.15 K, 100 kPa, Vibrating tube method	1372.4
331.5 K, 10000 kPa, Bellows volumetry	1372.4
331.5 K, 20000 kPa, Bellows volumetry	1379.6
331.5 K, 30000 kPa, Bellows volumetry	1386.5
331.5 K, 40000 kPa, Bellows volumetry	1393
331.5 K, 50000 kPa, Bellows volumetry	1399.1
331.5 K, 60000 kPa, Bellows volumetry	1405
331.5 K, 70000 kPa, Bellows volumetry	1410.6
331.5 K, 80000 kPa, Bellows volumetry	1416
331.5 K, 90000 kPa, Bellows volumetry	1421.3
331.5 K, 100000 kPa, Bellows volumetry	1426.6
331.5 K, 110000 kPa, Bellows volumetry	1431.4
331.5 K, 120000 kPa, Bellows volumetry	1436
331.5 K, 130000 kPa, Bellows volumetry	1440.6
331.5 K, 140000 kPa, Bellows volumetry	1445.1
331.5 K, 150000 kPa, Bellows volumetry	1449.5
331.5 K, 160000 kPa, Bellows volumetry	1454
331.5 K, 170000 kPa, Bellows volumetry	1458.1
331.5 K, 180000 kPa, Bellows volumetry	1462.1
331.5 K, 190000 kPa, Bellows volumetry	1466.1
331.5 K, 200000 kPa, Bellows volumetry	1470.2
333.15 K, 100 kPa, Vibrating tube method	1363.9
343.15 K, 100 kPa, Vibrating tube method	1355.5
351.6 K, 10000 kPa, Bellows volumetry	1355.8
351.6 K, 20000 kPa, Bellows volumetry	1363.3
351.6 K, 30000 kPa, Bellows volumetry	1370.6
351.6 K, 40000 kPa, Bellows volumetry	1377.4
351.6 K, 50000 kPa, Bellows volumetry	1383.9
351.6 K, 60000 kPa, Bellows volumetry	1390
351.6 K, 70000 kPa, Bellows volumetry	1395.9
351.6 K, 80000 kPa, Bellows volumetry	1401.7
351.6 K, 90000 kPa, Bellows volumetry	1407.4
351.6 K, 100000 kPa, Bellows volumetry	1412.4
351.6 K, 110000 kPa, Bellows volumetry	1417.5
351.6 K, 120000 kPa, Bellows volumetry	1422.3
351.6 K, 130000 kPa, Bellows volumetry	1427.1
351.6 K, 140000 kPa, Bellows volumetry	1431.7
351.6 K, 150000 kPa, Bellows volumetry	1436.5
351.6 K, 160000 kPa, Bellows volumetry	1440.8
351.6 K, 170000 kPa, Bellows volumetry	1445.1
351.6 K, 180000 kPa, Bellows volumetry	1449.2
351.6 K, 190000 kPa, Bellows volumetry	1453.3
351.6 K, 200000 kPa, Bellows volumetry	1457.4
353.15 K, 100 kPa, Vibrating tube method	1347.1
363.15 K, 100 kPa, Vibrating tube method	1338.7
371.6 K, 10000 kPa, Bellows volumetry	1339.4
371.6 K, 20000 kPa, Bellows volumetry	1347.4
371.6 K, 30000 kPa, Bellows volumetry	1355.3
371.6 K, 40000 kPa, Bellows volumetry	1362.4
371.6 K, 50000 kPa, Bellows volumetry	1369.3
371.6 K, 60000 kPa, Bellows volumetry	1375.8
371.6 K, 70000 kPa, Bellows volumetry	1382
371.6 K, 80000 kPa, Bellows volumetry	1387.9
371.6 K, 90000 kPa, Bellows volumetry	1393.8
371.6 K, 100000 kPa, Bellows volumetry	1399
371.6 K, 110000 kPa, Bellows volumetry	1404.3
371.6 K, 120000 kPa, Bellows volumetry	1409.6
371.6 K, 130000 kPa, Bellows volumetry	1414.5
371.6 K, 140000 kPa, Bellows volumetry	1419.3
371.6 K, 150000 kPa, Bellows volumetry	1424
371.6 K, 160000 kPa, Bellows volumetry	1428.4
371.6 K, 170000 kPa, Bellows volumetry	1433
371.6 K, 180000 kPa, Bellows volumetry	1437.4
371.6 K, 190000 kPa, Bellows volumetry	1441.6
371.6 K, 200000 kPa, Bellows volumetry	1445.7
373.15 K, 100 kPa, Vibrating tube method	1329.8
391.6 K, 10000 kPa, Bellows volumetry	1323.3
391.6 K, 20000 kPa, Bellows volumetry	1331.9
391.6 K, 30000 kPa, Bellows volumetry	1340.1
391.6 K, 40000 kPa, Bellows volumetry	1347.7
391.6 K, 50000 kPa, Bellows volumetry	1354.8
391.6 K, 60000 kPa, Bellows volumetry	1361.5
391.6 K, 70000 kPa, Bellows volumetry	1368.2
391.6 K, 80000 kPa, Bellows volumetry	1374.3
391.6 K, 90000 kPa, Bellows volumetry	1380.3
391.6 K, 100000 kPa, Bellows volumetry	1385.9
391.6 K, 110000 kPa, Bellows volumetry	1391.3
391.6 K, 120000 kPa, Bellows volumetry	1396.9
391.6 K, 130000 kPa, Bellows volumetry	1401.9
391.6 K, 140000 kPa, Bellows volumetry	1406.8
391.6 K, 150000 kPa, Bellows volumetry	1411.5
391.6 K, 160000 kPa, Bellows volumetry	1416.3
391.6 K, 170000 kPa, Bellows volumetry	1420.8
391.6 K, 180000 kPa, Bellows volumetry	1425.3
391.6 K, 190000 kPa, Bellows volumetry	1429.7
391.6 K, 200000 kPa, Bellows volumetry	1434
411.3 K, 10000 kPa, Bellows volumetry	1307.4
411.3 K, 20000 kPa, Bellows volumetry	1316.7
411.3 K, 30000 kPa, Bellows volumetry	1325.3
411.3 K, 40000 kPa, Bellows volumetry	1333.4
411.3 K, 50000 kPa, Bellows volumetry	1341
411.3 K, 60000 kPa, Bellows volumetry	1348
411.3 K, 70000 kPa, Bellows volumetry	1354.7
411.3 K, 80000 kPa, Bellows volumetry	1361.2
411.3 K, 90000 kPa, Bellows volumetry	1367.3
411.3 K, 100000 kPa, Bellows volumetry	1373.4
411.3 K, 110000 kPa, Bellows volumetry	1379
411.3 K, 120000 kPa, Bellows volumetry	1384.4
411.3 K, 130000 kPa, Bellows volumetry	1389.7
411.3 K, 140000 kPa, Bellows volumetry	1394.9
411.3 K, 150000 kPa, Bellows volumetry	1400
411.3 K, 160000 kPa, Bellows volumetry	1404.8
411.3 K, 170000 kPa, Bellows volumetry	1409.4
411.3 K, 180000 kPa, Bellows volumetry	1414.1
411.3 K, 190000 kPa, Bellows volumetry	1418.5
411.3 K, 200000 kPa, Bellows volumetry	1422.8
